In brackets after ≈: the same amount, converted by molar mass. Like-named read-outs stand apart in the source and are kept apart here.
Legend:
[1] = Cytotoxicity MTT assay; format: cell-based; details: African green monkey, Vero cells, highest concentration tested 200 μM
Experimental: A Cell Proliferation Kit I (MTT; Roche, Indianapolis, USA) was used to detect the cytotoxicity of the derivatives against Vero cells. Vero cells were added to 96-well microtiter plates at a concentration of 5 × 10^4 cells/well in 100 μL of culture medium. After 24 h, culture medium was replaced by 100 μL serial dilutions of the derivatives (0.78–100 μM) and the cells were incubated for 4 h in an atmosphere of 5% CO2, then 10 μL of the MTT stock solution was added to each well and the plate returned to the 37°C incubator for 4 h. Subsequent to the incubation, the purple formazan salts were dissolved in DMSO, and the absorbance of each well was measured at wavelengths of 595 nm (test) and 655 nm (reference). Cells treated with the solvent (0.1% DMSO) were used as a blank control. The concentration of the derivatives that produced a 50% cytotoxicity effect on Vero cells (CC50) was calculated using Origin v8.0 software (Origin Lab, Northampton, USA).

[2] = tested on: S. epidermidis ATCC 35984; assay: Time-kill assay against fast-growing S. epidermidis; format: cell-based, Staphylococcus epidermidis; details: 4 × MIC; within/after 1 h; inoculum ~1 × 10^7 CFU/mL; MHB
Experimental: Suspensions of S. epidermidis (1 × 10^7 CFU/mL) were prepared and separately treated with the derivatives of compound 5 or vancomycin at concentrations of 4 × MIC in fresh MHB. Time-kill experiments were performed at 37°C with shaking at 220 rpm under aerobic conditions. Aliquots (1 mL) were removed from the culture medium at different time points (0, 1, 3, 5, 8, and 24 h), serially diluted and 100 μL of each of the dilutions plated out onto tryptic soy agar. After incubating at 37°C for 24 h, emergent bacterial colonies were counted, and the activity of the derivatives against fast-growing S. epidermidis cells was determined by plotting log10 colony counts (CFU/mL) against time. Bactericidal activity was defined as a 3-log10 decrease in CFU/mL. This assay was performed in triplicate and similar results were obtained.

[3] = tested on: S. epidermidis ATCC 35984; assay: MIC and MBC tube-dilution assay; format: cell-based; details: Staphylococcus epidermidis; for MBC: ATCC35984, 99.9% reduction of inoculum; for MIC: ATCC35984, MHB, 16–20 h
Experimental: (§1) The MIC assays of the derivatives of compound 5 against S. epidermidis, S. aureus, MRSA and E. coli were performed by using the methods described previously by Wiegand et al. ([2008]). In brief, two-fold serial dilutions of the derivatives were prepared in tubes containing 4 mL MHB medium, yielding final concentrations from 200 to 0.78 μM. Bacterial cultures were grown overnight and adjusted so that the bacterial suspension turbidity was equivalent to a 0.5 McFarland standard (~1 × 10^8 CFU/mL) and further diluted to 1:200 into MHB medium. The contents in the tubes were mixed thoroughly and incubated at 37°C with shaking at 220 rpm for 16–20 h. The MIC endpoint was defined as the lowest concentration at which there was no visible growth in the tubes. The MBC values were assessed by plating 100 μL samples from each negative (no visible bacterial growth) culture tube from the MIC assays onto blank MHB agar plates. After incubation at 37°C for 24 h, the bacterial colonies on the plates were counted. The MBC was the concentration at which a 99.9% reduction of the original inoculum was observed (Pridmore et al., [2011]). In this assay, all the experiments were performed three times.

[4] = tested on: S. aureus ATCC 49230; assay: MIC tube-dilution assay; format: cell-based; details: Staphylococcus aureus, ATCC49230
Experimental: as §1

[5] = tested on: S. epidermidis ATCC 12228; assay: MIC tube-dilution assay; format: cell-based; details: Staphylococcus epidermidis, ATCC12228
Experimental: as §1

[6] = tested on: methicillin-resistant S. aureus (MRSA) clinical isolates; assay: MIC and MBC against clinical MRSA isolates; format: cell-based; details: Staphylococcus aureus
Experimental: S. epidermidis ATCC 12228 (biofilm negative), S. epidermidis ATCC 35984 (biofilm positive), S. aureus ATCC 49230 and Escherichia coli ATCC 25922 were used in this study. Six clinical methicillin-resistant S. aureus (MRSA) isolates were collected from the Department of Clinical Laboratory, Shanghai General Hospital, School of Medicine, Shanghai Jiaotong University, China. Staphylococcal strains were grown in tryptic soy broth (TSB; Oxoid Ltd., Basingstoke, England), and E. coli strains were grown in Luria-Bertani broth medium. Mueller-Hinton broth (MHB; Oxoid Ltd., Basingstoke, England) was used for antimicrobial susceptibility testing. Vancomycin and ampicillin were obtained from the Sigma Chemical Co. (St Louis, MO, USA).
as §1

[7] = tested on: E. coli ATCC 25922; assay: MIC tube-dilution assay; format: cell-based, Escherichia coli; details: E. coli ATCC29522 (head), highest concentration used 200 μM
Experimental: as §1

[8] = Aqueous solubility observation; format: physicochemical; details: 200 μM; precipitated after incubation at 37°C for 12 h; result in words
[9] = MRSA strain 66, ST239, read-out: MIC
[10] = MRSA strain 69, ST217, read-out: MIC
[11] = MRSA strain 141, ST5, read-out: MIC
[12] = MRSA strain 226, ST59, read-out: MIC
[13] = MRSA strain 258, ST239, read-out: MIC
[14] = MRSA strain 260, ST764, read-out: MIC
[15] = range over six isolates, read-out: MICs against six MRSA clinical isolates
[16] = Escherichia coli, ATCC 25922 / ATCC 29522

| SMILES | CC50 at 4 h [1] [µM] | reduction in CFU/mL [2] [log] | MBC [3] [µM] | MIC [3] [µM] | MIC [4] [µM] | MIC [5] [µM] | MBC ([6]; MRSA strain 66, ST239) [µM] | MIC [6, 9] [µM] | MBC ([6]; MRSA strain 69, ST217) [µM] | MIC [6, 10] [µM] | MBC ([6]; MRSA strain 141, ST5) [µM] | MIC [6, 11] [µM] | MBC ([6]; MRSA strain 226, ST59) [µM] | MIC [6, 12] [µM] | MBC ([6]; MRSA strain 258, ST239) [µM] | MIC [6, 13] [µM] | MBC ([6]; MRSA strain 260, ST764) [µM] | MIC [6, 14] [µM] | MIC [6, 15] [µM] | MIC [7] [µM] | other results |
| --- | --- | --- | --- | --- | --- | --- | --- | --- | --- | --- | --- | --- | --- | --- | --- | --- | --- | --- | --- | --- | --- |
| O=C(O)c1cccc(-c2ccc(C=c3sc4n(c3=O)C(c3ccc(F)cc3)C=C(c3ccccc3)N=4)o2)c1 (centres unmarked) [H5-33, 3-{5-[5-(4-fluoro-phenyl)-3-oxo-7-phenyl-5H-thiazolo [3,2-a]pyrimidin-2-ylidenemethyl]-furan-2-yl}-benzoic acid] | > 200 | 3 | 12.5 (≈ 6.53 µg/mL) | 3.13 (≈ 1.64 µg/mL) | 3.13 (≈ 1.64 µg/mL) | 3.13 (≈ 1.64 µg/mL) | 200 (≈ 105 µg/mL) | 6.25 (≈ 3.27 µg/mL) | 50 (≈ 26.1 µg/mL) | 6.25 (≈ 3.27 µg/mL) | 200 (≈ 105 µg/mL) | 6.25 (≈ 3.27 µg/mL) | 200 (≈ 105 µg/mL) | 6.25 (≈ 3.27 µg/mL) | 200 (≈ 105 µg/mL) | 6.25 (≈ 3.27 µg/mL) | 200 (≈ 105 µg/mL) | 6.25 (≈ 3.27 µg/mL) | 3.13 to 6.25 (≈ 1.64 to 3.27 µg/mL) | >200 | MIC [7, 16]: > 200 µM |
| CCOC(=O)C1=C(c2ccccc2)N=c2sc(=Cc3ccc(-c4ccc(C(=O)O)cc4)o3)c(=O)n2C1c1ccc(F)cc1 (centres unmarked) [H5-35, 2-[5-(4-carboxy-phenyl)-furan-2-ylmethylene]-5-(4-fluoro-phenyl)-3-oxo-7-phenyl-2,3-dihydro-5H-thiazolo[3,2-a]pyrimidine-6-carboxylic acid ethyl ester] | > 200 | 3 | 12.5 (≈ 7.43 µg/mL) | 3.13 (≈ 1.86 µg/mL) | 6.25 (≈ 3.72 µg/mL) | 3.13 (≈ 1.86 µg/mL) | 200 (≈ 119 µg/mL) | 3.13 (≈ 1.86 µg/mL) | 50 (≈ 29.7 µg/mL) | 6.25 (≈ 3.72 µg/mL) | 200 (≈ 119 µg/mL) | 6.25 (≈ 3.72 µg/mL) | 100 (≈ 59.5 µg/mL) | 6.25 (≈ 3.72 µg/mL) | 200 (≈ 119 µg/mL) | 6.25 (≈ 3.72 µg/mL) | 200 (≈ 119 µg/mL) | 6.25 (≈ 3.72 µg/mL) | 3.13 to 6.25 (≈ 1.86 to 3.72 µg/mL) | >200 | aqueous solubility [8]: limited aqueous solubility; MIC [7, 16]: > 200 µM |
| CCOC(=O)C1=C(c2ccccc2)N=c2sc(=Cc3ccc(-c4cccc(C(=O)O)c4)o3)c(=O)n2C1c1ccc(F)cc1 (centres unmarked) [H5-32, 2-[5-(3-carboxy-phenyl)-furan-2-ylmethylene]-5-(4-fluoro-phenyl)-3-oxo-7-phenyl-2,3-dihydro-5H-thiazolo[3,2-a]pyrimidine-6-carboxylic acid ethyl ester] | > 200 | 3 | 100 (≈ 59.5 µg/mL) | 3.13 (≈ 1.86 µg/mL) | 3.13 (≈ 1.86 µg/mL) | 6.25 (≈ 3.72 µg/mL) | 100 (≈ 59.5 µg/mL) | 3.13 (≈ 1.86 µg/mL) | 50 (≈ 29.7 µg/mL) | 3.13 (≈ 1.86 µg/mL) | 100 (≈ 59.5 µg/mL) | 6.25 (≈ 3.72 µg/mL) | 50 (≈ 29.7 µg/mL) | 6.25 (≈ 3.72 µg/mL) | 200 (≈ 119 µg/mL) | 3.13 (≈ 1.86 µg/mL) | 100 (≈ 59.5 µg/mL) | 6.25 (≈ 3.72 µg/mL) | 3.13 to 6.25 (≈ 1.86 to 3.72 µg/mL) | >200 | MIC [7, 16]: > 200 µM |
| CCOC(=O)C1=C(c2ccccc2)N=c2sc(=Cc3ccc(-c4ccc(C(=O)O)cc4)o3)c(=O)n2C1c1ccc(Cl)cc1 (centres unmarked) [H5-34, 2-[5-(4-carboxy-phenyl)-furan-2-ylmethylene]-5-(4-chloro-phenyl)-3-oxo-7-phenyl-2,3-dihydro-5H-thiazolo[3,2-a]pyrimidine-6-carboxylic acid ethyl ester] | > 200 | 3 | 25 (≈ 15.3 µg/mL) | 3.13 (≈ 1.91 µg/mL) | 3.13 (≈ 1.91 µg/mL) | 3.13 (≈ 1.91 µg/mL) | 200 (≈ 122 µg/mL) | 3.13 (≈ 1.91 µg/mL) | 50 (≈ 30.6 µg/mL) | 6.25 (≈ 3.82 µg/mL) | 200 (≈ 122 µg/mL) | 6.25 (≈ 3.82 µg/mL) | 100 (≈ 61.1 µg/mL) | 6.25 (≈ 3.82 µg/mL) | 200 (≈ 122 µg/mL) | 6.25 (≈ 3.82 µg/mL) | 200 (≈ 122 µg/mL) | 6.25 (≈ 3.82 µg/mL) | 3.13 to 6.25 (≈ 1.91 to 3.82 µg/mL) | >200 | aqueous solubility [8]: limited aqueous solubility; MIC [7, 16]: > 200 µM |

— paper PMC5374206, “Anti-bacterial and Anti-biofilm Evaluation of Thiazolopyrimidinone Derivatives Targeting the Histidine Kinase YycG Protein of Staphylococcus epidermidis” (Frontiers in Microbiology, 2017)
